Columns and labels:
Bos taurus [1] = organism: Bos taurus; assay: Inhibition of purified calf kidney ALR1 at 0.6 mM preincubated for 10 mins by UV spectrophotometry; assay type: tissue-based
[2] = Inhibition of purified calf eye lens ALR2 preincubated for 10 mins by UV spectrophotometry; assay type: tissue-based, Bos taurus, Lens of camera-type eye
Bos taurus [3] = organism: Bos taurus; assay: Inhibition of purified calf eye lens ALR2 at 0.6 mM preincubated for 10 mins by UV spectrophotometry; assay type: tissue-based; settings: Lens of camera-type eye
[4] = Inhibition of purified calf kidney ALR1 preincubated for 10 mins by UV spectrophotometry; assay type: tissue-based, Bos taurus

Row | SMILES | IC50 [2] [µM] | inhibition (Bos taurus [1]) [%] | inhibition (Bos taurus [3]) [%] | IC50 [4] [µM]
1 | COC(=O)/C=C1/S/C(=N\C(=O)c2ccc([N+](=O)[O-])cc2)N(c2ccccc2F)C1=O | 36.1 | 49.5 |  | 
2 | O=C1NC(=O)[C@@]2(CCOc3ccc(F)cc32)N1 [SORBINIL] | 3.14 |  |  | 
3 | COC(=O)/C=C1/S/C(=N\C(=O)c2ccc(C)cc2)N(c2cccc(Cl)c2)C1=O |  | 43.5 | 44.3 | 
4 | COC(=O)/C=C1/S/C(=N\C(=O)c2ccccc2Br)N(c2ccc(Cl)cc2Cl)C1=O | 2.54 | 72.7 |  | 
5 | COC(=O)/C=C1/S/C(=N\C(=O)c2ccccc2)N(c2ccccc2OC)C1=O | 2.82 | 41.2 |  | 
6 | COC(=O)/C=C1/S/C(=N\C(=O)c2ccccc2Br)N(c2cccc(Cl)c2Cl)C1=O | 9.42 | 51.4 |  | 
7 | COC(=O)/C=C1/S/C(=N\C(=O)c2ccccc2C)N(c2cccc(OC)c2)C1=O |  | 27.8 | 43.8 | 
8 | COC(=O)/C=C1/S/C(=N\C(=O)c2ccc(Cl)cc2)N(c2cccc(Cl)c2Cl)C1=O | 12.4 | 15.3 |  | 
9 | CCCC(CCC)C(=O)O [VALPROIC ACID] |  |  |  | 57.4
10 | COC(=O)/C=C1/S/C(=N\C(=O)c2ccc([N+](=O)[O-])cc2)N(c2ccc(F)c(Cl)c2)C1=O |  | 38.4 | 47.7 | 
11 | COC(=O)/C=C1/S/C(=N\C(=O)c2ccccc2)N(c2cccc3ccccc23)C1=O | 3.19 | 44.3 |  | 

The next lines start with results.

Row | IC50 [2] [µM] | SMILES | inhibition (Bos taurus [1]) [%] | inhibition (Bos taurus [3]) [%] | IC50 [4] [µM]
12 | 6.26 | COC(=O)/C=C1/S/C(=N\C(=O)c2cccc(C)c2)N(c2ccccc2OC)C1=O | 32.4 |  | 
13 | 9.75 | COC(=O)/C=C1/S/C(=N\C(=O)c2cccc(C)c2)N(c2ccccc2)C1=O | 31.5 |  | 
14 | 4.52 | COC(=O)/C=C1/S/C(=N\C(=O)c2cccc(C)c2)N(c2cccc(Cl)c2)C1=O | 42.6 |  | 
15 | 5.12 | COC(=O)/C=C1/S/C(=N\C(=O)c2ccc3ccccc3c2)N(c2ccccc2)C1=O | 49.1 |  | 
16 | 5.21 | COC(=O)/C=C1/S/C(=N\C(=O)c2ccccc2Cl)N(c2ccccc2)C1=O | 19.2 |  | 

From ChEMBL document CHEMBL3217575, “Design, synthesis and molecular modelling of novel methyl[4-oxo-2-(aroylimino)-3-(substituted phenyl)thiazolidin-5-ylidene]acetates as potent and selective aldose reductase inhibitors” (Medchemcomm, 2012)
